Data published in patent US8741911B2, “Raf inhibitor compounds” (Eli Lilly and Company, priority 2012, dated 2014).
Where two headings read alike, the source gives them in different places.

Experiments:
COLO-829 = experiment: CellTiter-Glo proliferation and viability assay; type: cell-based; details: Homo sapiens
HepG2 = experiment: CellTiter-Glo proliferation and viability assay; type: cell-based; details: Homo sapiens
NCI-H838 = experiment: CellTiter-Glo proliferation and viability assay; type: cell-based; details: Homo sapiens
PLC-PRF-5 = experiment: CellTiter-Glo proliferation and viability assay; type: cell-based; details: Homo sapiens
H9 = experiment: CellTiter-Glo proliferation and viability assay; type: cell-based; details: Homo sapiens
NOMO-1 = experiment: CellTiter-Glo proliferation and viability assay; type: cell-based; details: Homo sapiens, read-out: Abs IC50
huH-1 = experiment: CellTiter-Glo proliferation and viability assay; type: cell-based; details: Homo sapiens
NCI-H1155 = experiment: CellTiter-Glo proliferation and viability assay; type: cell-based; details: Homo sapiens
[1] = tested on: phospho-MEK and phospho-ERK in SK-MeI-2 cells; experiment: Immunoblotting (Western Blot) analysis of phospho-MEK and phospho-ERK; type: cell-based, human; details: SK-MeI-2, Western Blot
Procedure: N-Ras mutations B-Raf wild type leads to MAPK activation through Raf proteins, particularly C-Raf.
Testing is carried out at doses of 0, and 11 serial dilutions ranging from 0.17 to 10000 nM. Protein lysates are generated by treatment of the cells with RIPA lysis buffer from Millipore. Western blotting analysis is performed substantially as described in Yadav et al, Molecular Carcinogenesis, 2011, 50: 346-52. Briefly, SDS-PAGE is performed on cell lysates containing 20 ug of total protein using 4-20% Novex® tri-glycine gradient gels (Invitrogen). Protein is transferred onto […] nitrocellulose membranes using NuPAGE® Transfer Buffer (Invitrogen) and 10% methanol at 100 V, 4° C. for 1 hr. Generally, the primary antibody is used at 1:1000 dilution, and secondary antibody at 1:20000 dilution. Proteins are detected using the Odyssey Infrared Imaging System (Li-COR Biosciences). Antibodies against ERK1/2, phospho-ERK1/2, phospho-MEK1/2, and actin are obtained from Cell Signaling Technology.

A-Raf (WT) = target: T1, A-Raf (WT) (Homo sapiens, UniProt P10398); experiment: ActivX KiNativ A375 whole cell lysate assay; type: binding
T1 construct: Measurement of Raf Kinase Activities with Native Whole Enzymes Using KiNativ Assay; host or cells: A375 human melanoma cells, whole cell lysate
T1 sequence (P10398 1-606): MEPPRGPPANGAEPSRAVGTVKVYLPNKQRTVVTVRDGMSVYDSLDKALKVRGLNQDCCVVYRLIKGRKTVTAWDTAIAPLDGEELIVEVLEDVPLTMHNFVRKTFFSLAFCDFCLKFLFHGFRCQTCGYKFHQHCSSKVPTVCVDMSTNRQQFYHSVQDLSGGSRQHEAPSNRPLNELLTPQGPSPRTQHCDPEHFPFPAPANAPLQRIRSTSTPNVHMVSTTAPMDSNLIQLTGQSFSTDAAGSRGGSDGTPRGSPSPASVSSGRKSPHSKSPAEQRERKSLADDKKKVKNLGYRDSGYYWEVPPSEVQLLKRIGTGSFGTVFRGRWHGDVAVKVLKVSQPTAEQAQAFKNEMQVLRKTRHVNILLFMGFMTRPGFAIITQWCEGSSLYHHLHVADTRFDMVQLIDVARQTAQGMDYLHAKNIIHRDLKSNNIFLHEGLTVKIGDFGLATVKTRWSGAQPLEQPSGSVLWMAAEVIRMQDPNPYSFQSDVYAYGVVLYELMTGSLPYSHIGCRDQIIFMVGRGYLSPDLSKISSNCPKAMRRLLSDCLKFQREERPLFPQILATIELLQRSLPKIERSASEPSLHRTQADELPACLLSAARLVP

[2] = tested on: phospho-ERK in A375 V600E cells; experiment: SureFire phospho-ERK AlphaScreen cellular assay; type: cell-based; details: Homo sapiens, A-375, 1 hour treatment
Procedure: (§1) A375 V600E, WM-266-4 V600E, HCT-116 K-Ras mutant B-Raf wild type are from ATCC. The cellular activities are assessed by an ELISA assay commercially available from TGR Biosciences to measure the phospho-ERK levels of each cell type.
(§2) The cells in each well are then lysed with 50 μl lysis buffer from TGR Biosciences. The phospho-ERK activities are determined with SureFire phospho-ERK AlphaScreen assay kit from TGR Biosciences per manufacturer's instruction.

[3] = tested on: phospho-ERK in HCT-116 (K-Ras mutant B-Raf wild type) cells; experiment: SureFire phospho-ERK AlphaScreen cellular assay; type: cell-based; details: Homo sapiens, 1 hour treatment
Procedure: as §1, §2

[4] = tested on: phospho-ERK in A375 V600E-PLX4032 resistant cells (A375-res); experiment: SureFire phospho-ERK AlphaScreen cellular assay; type: cell-based; details: Homo sapiens, A-375, 1 hour treatment
Procedure: as §1, §2

[5] = tested on: phospho-ERK in WM-266-4 V600E cells; experiment: SureFire phospho-ERK AlphaScreen cellular assay; type: cell-based; details: Homo sapiens, 1 hour treatment
Procedure: as §1, §2

SW620 = experiment: CellTiter-Glo proliferation and viability assay; type: cell-based; details: Homo sapiens
A375res cells = experiment: CellTiter-Glo proliferation and viability assay in vemurafenib-resistant cells; type: cell-based, human; details: Homo sapiens, A375res cells
NCI-H2228 = experiment: CellTiter-Glo proliferation and viability assay; type: cell-based; details: Homo sapiens
EB2 = experiment: CellTiter-Glo proliferation and viability assay; type: cell-based; details: Homo sapiens
[6] = tested on: hematologic cancer cell lines with N-Ras mutations B-Raf wild type; experiment: CellTiter-Glo proliferation and viability assay, N-Ras mutant hematologic panel; type: cell-based; details: Homo sapiens; 7 of the 9 hematologic cancer cell lines with N-Ras mutations B-Raf wild type
Procedure: Additional N-RAS mutant B-Raf wild type hematologic cancer cell lines were tested for sensitivity to Example 1. N-Ras activating mutations are common in hematologic cancers occurring at a frequency of 10-30%. Two B-Raf V600E mutant melanoma cell lines (A-375 and SK-Mel-28), nine N-Ras mutant hematologic cell lines (HL-60, THP-1, TALL-1, C8166, H9, IM-9, GA-10 clone 4, P31-FUJ, MOLT-4) and seven N-Ras wild-type cell lines (LOUCY, HEL, U266, EB2, P30-OHK, NOMO-1, CCRF-CEM) were tested, and the IC50 data reported.

With `CNc1ncc2cc(-c3cc(NC(=O)NCCC(C)(C)C)c(F)cc3C)c(C)nc2n1` [Example 1, 1-(3,3-Dimethylbutyl)-3-(2-fluoro-4-methyl-5-(7-methyl-2-(methylamino)pyrido[2,3-d]pyrimidin-6-yl)phenyl)urea] the IC50 (COLO-829; read-out: Abs IC50) was 0.05 nM, the IC50 (COLO-829; read-out: Rel IC50) was 0.04 nM and the IC50 (HepG2; read-out: Abs IC50) was 0.06 nM. The IC50 (HepG2; read-out: Rel IC50) was 0.03 nM, the IC50 (NCI-H838; read-out: Abs IC50) was 13.4 nM and the IC50 (NCI-H838; read-out: Rel IC50) was 6.97 nM. The IC50 (PLC-PRF-5; read-out: Abs IC50) was greater than 20 nM, the IC50 (PLC-PRF-5; read-out: Rel IC50) was 11.7 nM and the IC50 (H9; read-out: Abs IC50) was 0.33 nM. The IC50 (H9; read-out: Rel IC50) was 0.19 nM, the IC50 (NOMO-1) was 2.63 nM and the IC50 (huH-1; read-out: Abs IC50) was 1.99 nM. It also gave an IC50 (huH-1; read-out: Rel IC50) of 0.59 nM, an IC50 (NCI-H1155; read-out: Abs IC50) greater than 20 nM and an IC50 (NCI-H1155; read-out: Rel IC50) of 0.47 nM. The “dose at which phospho-ERK activity is substantially eliminated” value [1] was 370 nM, the “phospho-MEK and phospho-ERK inhibition” value ([1]; 0.17 to 10000 nM) was “dose dependent phospho-MEK and phospho-ERK inhibition” and the inhibition at 0.001 µM (A-Raf (WT); 1 nM) was 4.3%. The inhibition at 0.01 µM (A-Raf (WT); 10 nM) was 13.4%, the inhibition at 0.1 µM (A-Raf (WT); 100 nM) was 53.6% and the inhibition at 1 µM (A-Raf (WT); 1000 nM) was 72%. It also gave an IC50 [2] of 3 nM, an IC50 [3] of 133 nM and an IC50 [4] of 9.7 nM. The IC50 [5] was 4.9 nM, the IC50 (SW620; SW-620, read-out: Abs IC50) was 2.86 nM and the IC50 (SW620; SW-620, read-out: Rel IC50) was 0.46 nM. The IC50 (A375res cells) was 34 nM, the IC50 (NCI-H2228; read-out: Abs IC50) was greater than 20 nM and the IC50 (NCI-H2228; read-out: Rel IC50) was 1.18 nM. It also gave an IC50 (EB2; read-out: Abs IC50) greater than 20 nM, an IC50 (EB2; read-out: Rel IC50) of 0.5 nM and an IC50 [6] of less than 1000 nM.
